Assay results as given in publication PMC7582905, “Effect of Disulfide Cyclization of Ultrashort Cationic Lipopeptides on Antimicrobial Activity and Cytotoxicity” (International Journal of Molecular Sciences, 2020).
≈ marks a conversion by molar mass, not a printed value. Where two headings read alike, the source gives them in different places. Where a SMILES comes first, the peptide text is derived from it. Bridges are numbered along the chain shown (N, C = ends). The star is where a group is joined. Palmitoyl = CCCCCCCCCCCCCCCC(=O)*

Legend:
[1] = test system: Escherichia coli ATCC 25922; format: cell-based
Method in brief: (§1)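 Broth microdilution per CLSI: E. coli at 5 × 10^5 CFU/mL in Mueller–Hinton broth, yeasts at 2 × 10^3 CFU/mL in RPMI-1640 with 2% D-glucose, exposed to lipopeptides at 0.5–256 μg/mL. Incubation at 37 °C, 18 h for bacteria and 24 h for yeasts. MIC read visually as lowest concentration inhibiting noticeable growth; triplicate.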

[2] = test system: Staphylococcus aureus ATCC 25923; format: cell-based
Method in brief: as §1

[3] = test system: Staphylococcus epidermidis ATCC 14990; format: cell-based
Method in brief: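 Broth microdilution per CLSI: bacteria at 5 × 10^5 CFU/mL in MHB, 18 h, and yeasts at 2 × 10^3 CFU/mL in RPMI-1640 with 2% D-glucose, 24 h, both at 37 °C, lipopeptides 0.5–256 μg/mL. MIC is lowest concentration visibly inhibiting growth; triplicate.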

[4] = test system: Candida glabrata ATCC 15126; format: cell-based
Method in brief: as §1

[5] = test system: Candida tropicalis PCM 2709-FY; format: cell-based; conditions: 24 h
Method in brief: as §1

[6] = test system: Candida lipolytica PCM 2680-FY; format: cell-based; conditions: 24 h
Method in brief: as §1

[7] = test system: Staphylococcus aureus ATCC 25923; format: cell-based; remark: listed apart in the source
Method in brief: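 Biofilms were grown 24 h at 37 °C in 96-well plates from 2.0 × 10^5 CFU/mL (fungi) or 5.0 × 10^5 CFU/mL (bacteria) inocula, washed with PBS, then exposed 24 h at 37 °C to compounds at 0.5–256 μg/mL. MBEC was taken as the lowest concentration giving ≤10 ± 0.5% resazurin reduction (A570/A600) after 1 h; triplicate.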

[8] = test system: Staphylococcus aureus ATCC 25923; conditions: values marked *: performed by the group in the previous study; ref [29]; cited from earlier work
Description: Table 2 Antimicrobial activity of lipopeptides. | column: MIC (μg/mL) / S. aureus

[9] = test system: Staphylococcus aureus ATCC 25923; conditions: values marked *: performed by the group in the previous study; ref [29]; cited from earlier work; remark: listed apart in the source
Description: Table 3 Antibiofilm activity of lipopeptides. | column: MBEC (μg/mL) / S. aureus

[10] = test system: E. coli ML-35 (ATCC 43827); format: cell-based, Escherichia coli
[11] = test system: Candida albicans ATCC 10231; experiment: Transmission electron microscopy (TEM); format: cell-based; conditions: 2 × MIC, 5.0 × 10^6 CFU/mL, 1 h at room temperature
Description: TEM was used to examine ultrastructural changes in the Candida albicans ATCC 10231 cells treated with selected lipopeptides (L2, C2, L4, C4) and melittin (positive control). Fungal cells (Candida albicans ATCC 10231) were incubated in RMPI-1640 overnight. The cells were centrifuged (3500 rpm, 7 min) and resuspended in fresh RMPI-1640 medium to obtain dense cell suspension (5.0 × 10^6 CFU/mL). The high cell-density culture was prepared to facilitate TEM observations. Peptides’ concentrations were 2 × MIC. Samples were incubated for 1 h at room temperature. Importantly, MIC of selected peptides (L2, C2, L4, C4, and melittin) were also determined with dense inoculum of yeasts (5.0 × 10^6 CFU/mL). After the treatment, the fungal cells were centrifuged (3500× rpm, 10 min) and washed twice with PBS. Fungal cells were fixed with 2.5% glutaraldehyde buffered at pH 6.5 with 0.1 M sodium cacodylate (Polysciences, Warrington, PA, USA) for 6 h at room temperature. Postfixation was performed with a 1% osmium tetroxide (Polysciences, Warrington, PA, USA) solution for 2 h at 4 °C. The cells were then centrifuged and resuspended in 0.1 M cacodylate buffer (pH 6.5). After re-centrifugation, cells were dehydrated with ethanol. Yeasts were embedded in Epon 812 resin (Sigma-Aldrich) at room temperature. An ultramicrotome Leica UC7 was used to prepare ultrathin sections (55 nm). […]

[12] = broth microdilution (CLSI), MHB, 5 × 10^5 CFU/mL, 37 °C, 18 h, visual, triplicate
[13] = broth microdilution (CLSI), RPMI-1640 with 2% D-glucose, 2 × 10^3 CFU/mL, 37 °C, visual, triplicate

| Compound | MIC E. coli ([1]; ATCC 25922, 18 h) [µg/mL] | MIC S. aureus ([2]; ATCC 25923, 18 h) [µg/mL] | MIC S. epidermidis ([3]; ATCC 14990, 18 h) [µg/mL] | MIC C. glabrata ([4]; ATCC 15126, 24 h) [µg/mL] | MIC C. tropicalis ([5]; PCM 2709-FY) [µg/mL] | MIC C. lipolytica [6] [µg/mL] | MBEC S. aureus ([7]; ATCC 25923, 24 h) [µg/mL] | MIC S. aureus [8] | MBEC S. aureus [9] | MIC E. coli [1, 12] [µg/mL] | MIC S. aureus [2, 12] [µg/mL] | MIC S. epidermidis [3, 12] [µg/mL] | MIC C. glabrata ([4]; broth microdilution (CLSI), RPMI-1640 with 2% D-glucose, 2 × 10^3 CFU/mL, 37 °C, 24 h, visual, triplicate) [µg/mL] | MIC C. tropicalis [5, 13] [µg/mL] | MIC C. lipolytica [6, 13] [µg/mL] | MIC against E. coli ML-35 [10] [µg/mL] | MBEC S. aureus ([7]; 24 h biofilm on polystyrene plates, 24 h exposure at 37 °C, resazurin, triplicate) [µg/mL] | ultrastructural changes in TEM micrographs [11] |
| --- | --- | --- | --- | --- | --- | --- | --- | --- | --- | --- | --- | --- | --- | --- | --- | --- | --- | --- |
| CCCCCCCCCCCCCCCC(=O)N[C@@H](CCCNC(=N)N)C(=O)N[C@@H](CCCNC(=N)N)C(=O)N[C@@H](CCCCN)C(=O)N[C@@H](CCCCN)C(N)=O [L7, C16-RRKK-NH2] (Palmitoyl-RRKK-NH2) | 8 (≈ 9.71 µM) | 4 (≈ 4.85 µM) | 4 (≈ 4.85 µM) | 16 (≈ 19.4 µM) | 8 (≈ 9.71 µM) | 8 (≈ 9.71 µM) | 128 | – | – | – | – | – | – | – | – | – | – | – |
| CCCCCCCCCCCCCCCC(=O)N[C@H]1CSSC[C@@H](C(N)=O)NC(=O)[C@H](CCCNC(=N)N)NC(=O)[C@H](CCCCN)NC(=O)[C@H](CCCCN)NC(=O)[C@H](CCCCN)NC1=O [C6, C16-CKKKRC-NH2] (Palmitoyl-CKKKRC-NH2; disulfide 1-6) | 32 (≈ 32 µM) | – | 8 (≈ 8 µM) | 4 (≈ 4 µM) | 2 (≈ 2 µM) | 2 (≈ 2 µM) | – | 16 * μg/mL | 64 * μg/mL | – | – | – | – | – | – | – | – | – |
| CCCCCCCCCCCCCCCC(=O)N[C@H]1CSSC[C@@H](C(N)=O)NC(=O)[C@H](CCCCN)NC(=O)[C@H](CCCNC(=N)N)NC(=O)[C@H](CCCCN)NC(=O)[C@H](CCCCN)NC1=O [C5, C16-CKKRKC-NH2] (Palmitoyl-CKKRKC-NH2; disulfide 1-6) | 16 (≈ 16 µM) | – | 4 (≈ 4 µM) | 8 (≈ 8 µM) | 4 (≈ 4 µM) | 4 (≈ 4 µM) | – | 8 * μg/mL | 128 * μg/mL | – | – | – | – | – | – | – | – | – |
| CCCCCCCCCCCCCCCC(=O)N[C@H]1CSSC[C@@H](C(N)=O)NC(=O)[C@H](CCCCN)NC(=O)[C@H](CCCCN)NC(=O)[C@H](CCCCN)NC(=O)[C@H](CCCNC(=N)N)NC1=O [C3, C16-CRKKKC-NH2] (Palmitoyl-CRKKKC-NH2; disulfide 1-6) | 16 (≈ 16 µM) | – | 8 (≈ 8 µM) | 8 (≈ 8 µM) | 2 (≈ 2 µM) | 4 (≈ 4 µM) | – | 8 * μg/mL | 128 * μg/mL | – | – | – | – | – | – | – | – | – |
| CCCCCCCCCCCCCCCC(=O)N[C@H]1CSSC[C@@H](C(N)=O)NC(=O)[C@H](CCCCN)NC(=O)[C@H](CCCCN)NC(=O)[C@H](CCCNC(=N)N)NC(=O)[C@H](CCCNC(=N)N)NC1=O [C7, C16-CRRKKC-NH2] (Palmitoyl-CRRKKC-NH2; disulfide 1-6) | 16 (≈ 15.6 µM) | 8 (≈ 7.78 µM) | 4 (≈ 3.89 µM) | 4 (≈ 3.89 µM) | 4 (≈ 3.89 µM) | 4 (≈ 3.89 µM) | 128 | – | – | – | – | – | – | – | – | – | – | – |
| CCCCCCCCCCCCCCCC(=O)N[C@H]1CSSC[C@@H](C(N)=O)NC(=O)[C@H](CCCCN)NC(=O)[C@H](CCCCN)NC(=O)[C@H](CCCCN)NC(=O)[C@H](CCCCN)NC1=O [C2, C16-CKKKKC-NH2] (Palmitoyl-CKKKKC-NH2; disulfide 1-6) | – | – | – | – | – | – | – | – | – | 64 (≈ 65.8 µM) | 32 (≈ 32.9 µM) | 8 (≈ 8.23 µM) | 4 (≈ 4.11 µM) | 2 (≈ 2.06 µM) | 2 (≈ 2.06 µM) | 8 (≈ 8.23 µM) | 64 | – |
| CCCCCCCCCCCCCCCC(=O)N[C@@H](CCCCN)C(=O)N[C@@H](CCCCN)C(=O)N[C@@H](CCCCN)C(=O)N[C@@H](CCCCN)C(N)=O [L2, C16-KKKK-NH2] (Palmitoyl-KKKK-NH2) | 32 (≈ 41.7 µM) | 16 (≈ 20.8 µM) | 8 (≈ 10.4 µM) | 64 (≈ 83.3 µM) | 4 (≈ 5.21 µM) | 8 (≈ 10.4 µM) | 64 | – | – | – | – | – | – | – | – | 4 (≈ 5.21 µM) | – | – |
| CCCCCCCCCCCCCCCC(=O)N[C@@H](CCCCN)C(=O)N[C@@H](CCCCN)C(=O)N[C@@H](CCCNC(=N)N)C(=O)N[C@@H](CCCCN)C(N)=O [L5, C16-KKRK-NH2] (Palmitoyl-KKRK-NH2) | 8 (≈ 10 µM) | – | 8 (≈ 10 µM) | 64 (≈ 80.4 µM) | 8 (≈ 10 µM) | 8 (≈ 10 µM) | – | 16 * μg/mL | 32 * μg/mL | – | – | – | – | – | – | – | – | – |
| CCCCCCCCCCCCCCCC(=O)N[C@H]1CSSC[C@@H](C(N)=O)NC(=O)[C@H](CCCCN)NC(=O)[C@H](CCCCN)NC(=O)[C@H](CCCCN)NC1=O [C1, C16-CKKKC-NH2] (Palmitoyl-CKKKC-NH2; disulfide 1-5) | 16 (≈ 19 µM) | – | 4 (≈ 4.74 µM) | 4 (≈ 4.74 µM) | 4 (≈ 4.74 µM) | 4 (≈ 4.74 µM) | – | 8 * μg/mL | 64 * μg/mL | – | – | – | – | – | – | – | – | – |
| CCCCCCCCCCCCCCCC(=O)N[C@@H](CCCCN)C(=O)N[C@@H](CCCCN)C(=O)N[C@@H](CCCCN)C(=O)N[C@@H](CCCNC(=N)N)C(N)=O [L6, C16-KKKR-NH2] (Palmitoyl-KKKR-NH2) | 8 (≈ 10 µM) | – | 4 (≈ 5.02 µM) | 64 (≈ 80.4 µM) | 8 (≈ 10 µM) | 8 (≈ 10 µM) | – | 16 * μg/mL | 32 * μg/mL | – | – | – | – | – | – | – | – | – |
| CCCCCCCCCCCCCCCC(=O)N[C@@H](CCCCN)C(=O)N[C@@H](CCCNC(=N)N)C(=O)N[C@@H](CCCCN)C(=O)N[C@@H](CCCCN)C(N)=O [L4, C16-KRKK-NH2] (Palmitoyl-KRKK-NH2) | 8 (≈ 10 µM) | 8 (≈ 10 µM) | 8 (≈ 10 µM) | 32 (≈ 40.2 µM) | 2 (≈ 2.51 µM) | 1 (≈ 1.26 µM) | 64 | – | – | – | – | – | – | – | – | 4 (≈ 5.02 µM) | – | – |
| CCCCCCCCCCCCCCCC(=O)N[C@@H](CCCNC(=N)N)C(=O)N[C@@H](CCCCN)C(=O)N[C@@H](CCCCN)C(=O)N[C@@H](CCCCN)C(N)=O [L3, C16-RKKK-NH2] (Palmitoyl-RKKK-NH2) | 8 (≈ 10 µM) | – | 8 (≈ 10 µM) | 64 (≈ 80.4 µM) | 8 (≈ 10 µM) | 8 (≈ 10 µM) | – | 16 * μg/mL | 64 * μg/mL | – | – | – | – | – | – | – | – | – |
| CCCCCCCCCCCCCCCC(=O)N[C@H]1CSSC[C@@H](C(N)=O)NC(=O)[C@H](CCCCN)NC(=O)[C@H](CCCCN)NC(=O)[C@H](CCCNC(=N)N)NC(=O)[C@H](CCCCN)NC1=O [C4, C16-CKRKKC-NH2] (Palmitoyl-CKRKKC-NH2; disulfide 1-6) | 32 (≈ 32 µM) | 16 (≈ 16 µM) | 8 (≈ 8 µM) | 4 (≈ 4 µM) | 2 (≈ 2 µM) | 1 (≈ 1 µM) | 64 | – | – | – | – | – | – | – | – | 8 (≈ 8 µM) | – | numerous vesicles are visible inside and outside the cell |
